Species: Rattus norvegicus
Experiment: DrugMatrix - Regimen: Daily Repeat
Format: toxicity, organism-based, Sprague-Dawley
Set-up: regimen Daily Repeat, gender Male, age 6-8 weeks
Conditions: in vivo, po, route oral GAVAGE, vehicle 100 % WATER; for ABSOLUTE BASOPHIL / ABSOLUTE EOSINOPHIL / ABSOLUTE LYMPHOCYTE / ABSOLUTE MONOCYTE / ABSOLUTE SEGMENTED NEUTROPHIL / BASOPHIL / EOSINOPHIL / ERYTHROCYTE COUNT / HEMATOCRIT / HEMOGLOBIN / LEUKOCYTE COUNT / LYMPHOCYTE / MEAN CORPUSCULAR HEMOGLOBIN / MEAN CORPUSCULAR HEMOGLOBIN CONCENTRATION / MEAN CORPUSCULAR VOLUME / MONOCYTE / NEUTROPHIL / NUCLEATED RED BLOOD CELLS / PLATELET COUNT: tissue Blood; for ALANINE AMINOTRANSFERASE / ALBUMIN / ALKALINE PHOSPHATASE / ASPARTATE AMINOTRANSFERASE / BLOOD UREA NITROGEN / CARBON DIOXIDE / CHLORIDE / CHOLESTEROL / CREATINE PHOSPHOKINASE / CREATININE / GLUCOSE / LACTATE DEHYDROGENASE / LIPASE / PHOSPHORUS / POTASSIUM / SODIUM / TOTAL BILIRUBIN / TOTAL PROTEIN / URIC ACID: tissue Plasma
[1] = 0 mg/kg, 72 h, dose level Control, time 3 day
[2] = 0 mg/kg, 120 h, dose level Control, time 5 day
[3] = 0.07 mg/kg, 72 h, dose level Low, time 3 day

Cc1cc(C(C)(C)C)c(O)c(C)c1CC1=NCCN1 [OXYMETAZOLINE]
ABSOLUTE BASOPHIL [1]: 0 CELLS/uL
ABSOLUTE EOSINOPHIL [1]: 123.17 CELLS/uL
ABSOLUTE LYMPHOCYTE [1]: 12677.83 CELLS/uL
ABSOLUTE MONOCYTE [1]: 66.17 CELLS/uL
ABSOLUTE SEGMENTED NEUTROPHIL [1]: 1149.5 CELLS/uL
BASOPHIL [1]: 0%
EOSINOPHIL [1]: 0.83%
ERYTHROCYTE COUNT [1]: 5.26 x10E6/uL
HEMATOCRIT [1]: 33.07%
HEMOGLOBIN [1]: 13.43 G/DL
LEUKOCYTE COUNT [1]: 14.02 x10E3/uL
LYMPHOCYTE [1]: 90.17%
MEAN CORPUSCULAR HEMOGLOBIN [1]: 25.62 pg
MEAN CORPUSCULAR HEMOGLOBIN CONCENTRATION [1]: 40.65 G/DL
MEAN CORPUSCULAR VOLUME [1]: 63 fL
MONOCYTE [1]: 0.5%
NEUTROPHIL [1]: 8.5%
NUCLEATED RED BLOOD CELLS [1]: 0.17 /100WBC
PLATELET COUNT [1]: 1142.83 x10E3/uL
ALANINE AMINOTRANSFERASE [1]: 45.17 u/L
ALBUMIN [1]: 3.78 G/DL
ALKALINE PHOSPHATASE [1]: 340.17 u/L
ASPARTATE AMINOTRANSFERASE [1]: 77.33 u/L
BLOOD UREA NITROGEN [1]: 14.67 mg/dL
CARBON DIOXIDE [1]: 28.67 mmol/L
CHLORIDE [1]: 101.17 MEQ/L
CHOLESTEROL [1]: 77.67 mg/dL
CREATINE PHOSPHOKINASE [1]: 263.67 u/L
CREATININE [1]: 0.15 mg/dL
GLUCOSE [1]: 169.33 mg/dL
LACTATE DEHYDROGENASE [1]: 230 u/L
LIPASE [1]: 9.67 u/L
PHOSPHORUS [1]: 11.8 mg/dL
POTASSIUM [1]: 5.91 MEQ/L
SODIUM [1]: 142.88 MEQ/L
TOTAL BILIRUBIN [1]: 0.22 mg/dL
TOTAL PROTEIN [1]: 5.7 G/DL
URIC ACID [1]: 1.35 mg/dL
ABSOLUTE BASOPHIL [2]: 0 CELLS/uL
ABSOLUTE EOSINOPHIL [2]: 125 CELLS/uL
ABSOLUTE LYMPHOCYTE [2]: 13809 CELLS/uL
ABSOLUTE MONOCYTE [2]: 351 CELLS/uL
ABSOLUTE SEGMENTED NEUTROPHIL [2]: 1581.67 CELLS/uL
BASOPHIL [2]: 0%
EOSINOPHIL [2]: 0.67%
ERYTHROCYTE COUNT [2]: 5.53 x10E6/uL
HEMATOCRIT [2]: 34.83%
HEMOGLOBIN [2]: 13.9 G/DL
LEUKOCYTE COUNT [2]: 15.87 x10E3/uL
LYMPHOCYTE [2]: 87.5%
MEAN CORPUSCULAR HEMOGLOBIN [2]: 25.25 pg
MEAN CORPUSCULAR HEMOGLOBIN CONCENTRATION [2]: 40.08 G/DL
MEAN CORPUSCULAR VOLUME [2]: 63.05 fL
MONOCYTE [2]: 2.17%
NEUTROPHIL [2]: 9.67%
NUCLEATED RED BLOOD CELLS [2]: 0 /100WBC
PLATELET COUNT [2]: 1044 x10E3/uL
ALANINE AMINOTRANSFERASE [2]: 50.67 u/L
ALBUMIN [2]: 4.33 G/DL
ALKALINE PHOSPHATASE [2]: 395 u/L
ASPARTATE AMINOTRANSFERASE [2]: 86 u/L
BLOOD UREA NITROGEN [2]: 15.33 mg/dL
CARBON DIOXIDE [2]: 29.33 mmol/L
CHLORIDE [2]: 101.5 MEQ/L
CHOLESTEROL [2]: 71.33 mg/dL
CREATINE PHOSPHOKINASE [2]: 323.17 u/L
CREATININE [2]: 0.18 mg/dL
GLUCOSE [2]: 145.67 mg/dL
LACTATE DEHYDROGENASE [2]: 389.5 u/L
LIPASE [2]: 9.83 u/L
PHOSPHORUS [2]: 11.35 mg/dL
POTASSIUM [2]: 6.39 MEQ/L
SODIUM [2]: 142.77 MEQ/L
TOTAL BILIRUBIN [2]: 0.18 mg/dL
TOTAL PROTEIN [2]: 6.1 G/DL
URIC ACID [2]: 1.52 mg/dL
ABSOLUTE BASOPHIL [3]: 0 CELLS/uL
ABSOLUTE EOSINOPHIL [3]: 62.33 CELLS/uL
ABSOLUTE LYMPHOCYTE [3]: 13944.33 CELLS/uL
ABSOLUTE MONOCYTE [3]: 0 CELLS/uL
ABSOLUTE SEGMENTED NEUTROPHIL [3]: 1260 CELLS/uL
BASOPHIL [3]: 0%
EOSINOPHIL [3]: 0.33%
ERYTHROCYTE COUNT [3]: 5.43 x10E6/uL
HEMATOCRIT [3]: 34.37%
HEMOGLOBIN [3]: 13.87 G/DL
LEUKOCYTE COUNT [3]: 15.27 x10E3/uL
LYMPHOCYTE [3]: 91.67%
MEAN CORPUSCULAR HEMOGLOBIN [3]: 25.53 pg
MEAN CORPUSCULAR HEMOGLOBIN CONCENTRATION [3]: 40.33 G/DL
MEAN CORPUSCULAR VOLUME [3]: 63.33 fL
MONOCYTE [3]: 0%
NEUTROPHIL [3]: 8%
NUCLEATED RED BLOOD CELLS [3]: 0.33 /100WBC
PLATELET COUNT [3]: 1341.33 x10E3/uL
ALANINE AMINOTRANSFERASE [3]: 49.33 u/L
ALBUMIN [3]: 3.83 G/DL
ALKALINE PHOSPHATASE [3]: 309.33 u/L
ASPARTATE AMINOTRANSFERASE [3]: 74 u/L
BLOOD UREA NITROGEN [3]: 12.33 mg/dL
CARBON DIOXIDE [3]: 33.33 mmol/L
CHLORIDE [3]: 100.33 MEQ/L
CHOLESTEROL [3]: 68.67 mg/dL
CREATINE PHOSPHOKINASE [3]: 205.67 u/L
CREATININE [3]: 0.12 mg/dL
GLUCOSE [3]: 144.67 mg/dL
LACTATE DEHYDROGENASE [3]: 166.67 u/L
LIPASE [3]: 10 u/L
PHOSPHORUS [3]: 10.43 mg/dL
POTASSIUM [3]: 6.84 MEQ/L
SODIUM [3]: 142.8 MEQ/L
TOTAL BILIRUBIN [3]: 0.2 mg/dL
TOTAL PROTEIN [3]: 5.67 G/DL
URIC ACID [3]: 1.37 mg/dL

— ChEMBL document CHEMBL3885881, “DrugMatrix”
